Read-outs that look alike come from different tables or passages of the source.
What was measured:
[1] = system: MDCK cells expressing human MDR1 (P-glycoprotein); assay: MDCK-MDR1 permeability A→B; type: in vitro ADME, Canine
Protocol: ADME studies: Compound A and the compounds of the disclosure were tested for aqueous solubility (KSOL), metabolic stability (human and mouse […]) and permeability (Caco-2 and/or MDR1-MDCK cells) to provide an initial indication of oral bioavailability.
The favorable physicochemical properties are reflected in promising results in in vitro ADME tests. […] Metabolic stability, which was routinely measured with mouse and human hepatocytes, is outstanding, with t, greater than 2 hours for all of the compounds of the disclosure in which it has been measured. Cell permeability was measured using MDCK cells expressing human MDR1 (P-glycoprotein) to assess passive permeability as well as active transport out of the cell. […] Numerous compounds in Table 1 meet these permeability criteria, which is consistent with their design for TPSA <140 Å^2 and increased lipophilicity.
The MDCK-MDR1 permeability A ->B is shown in Table 2 below, where A represents 5-10 cm/s×10^−6; B represents 1-5 cm/s×10^−6; and C represents <1 cm/ss×10^−6. The metabolic stability half time, in both mouse and human hepatocytes, is also shown in Table 2 below, where A′ represents 100-200 minutes; B′ represents 200-300 minutes; and C′ represents >300 minutes.

cGAS = cGAS (Homo sapiens, UniProt Q8N884); assay: Transcreener cGAS enzymatic assay (FP); type: biochemical
Chain of cGAS (Q8N884 whole entry): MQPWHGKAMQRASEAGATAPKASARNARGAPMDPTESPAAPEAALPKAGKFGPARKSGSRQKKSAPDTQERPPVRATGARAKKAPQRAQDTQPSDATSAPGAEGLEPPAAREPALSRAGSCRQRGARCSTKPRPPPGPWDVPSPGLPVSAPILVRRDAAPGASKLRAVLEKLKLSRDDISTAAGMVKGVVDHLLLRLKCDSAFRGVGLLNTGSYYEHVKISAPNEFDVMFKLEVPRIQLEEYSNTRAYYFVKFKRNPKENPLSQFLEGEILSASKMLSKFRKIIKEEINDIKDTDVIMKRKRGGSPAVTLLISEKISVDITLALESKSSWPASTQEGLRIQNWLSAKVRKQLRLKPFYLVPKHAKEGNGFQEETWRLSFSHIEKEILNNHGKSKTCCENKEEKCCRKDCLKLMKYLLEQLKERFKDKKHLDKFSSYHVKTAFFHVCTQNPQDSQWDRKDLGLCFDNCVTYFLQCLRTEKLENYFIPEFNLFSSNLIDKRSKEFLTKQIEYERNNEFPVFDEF
Protocol: Structural, biochemical and biophysical analysis and selectivity profiling: Potency and MOA studies, including Mn^2+ sensitivity, were performed using the Transcreener cGAS enzymatic assay, which is manufactured at BellBrook Labs (Fitchburg, Wisconsin, USA). This homogenous cGAS enzymatic assay was developed with fluorescence polarization (FP) and time-resolved Forster resonance energy transfer (TR-FRET) readouts, as described in International Patent Publication WO 2020/142729, incorporated by reference herein in its entirety. Plates are read on a PHERAstar FSX multimode reader (BMG). The compounds of the disclosure were tested for inhibition of cGAS ([…]) using this cGAS enzymatic assay under standard conditions (100 μM ATP and GTP, 62.5 nM bp ISD, 60 minute reactions), high ATP and GTP (1 mM) to mimic physiological conditions, in the presence of 200 μM MnCl2, and with mouse cGAS under standard conditions.
The IC50 values for FP under standard and under physiological conditions were determined for several exemplary compounds of the invention. The relative activities for FP Standard IC50 are shown in Table 2 below, where A represents <50 nM; B represents 50-100 nM; C represents 100-200 nM; D represents 200 nM-1μM; and E represents 1-10 μM. For the relative activities for FP Physiological IC50, A′ represents <200 nM; B′ represents 200-500 nM; C′ represents 500 nM-1μM; D′ represents 1-5 μM; and E′ represents >5 μM.

[2] = system: IFNβ production in THP-1 cells; assay: IFNβ ELISA in THP-1 cells; type: cell-based, human; details: Homo sapiens; THP-1 cells
Excerpt: Cellular assays: The human monocyte cell line THP-1 and human primary PBMCs were used to evaluate the cellular activity of compounds with good biochemical potency. These cells produce a robust cGAS/STING-dependent type I IFN response when stimulated with dsDNA and other pathogen-associated molecular patterns, which was detected using a standard ELISA for IFNβ (R&D Systems). The TBK1 inhibitor, BX-795, which acts downstream of cGAS/STING, was used as a probe.
CETSA was also used to confirm that the compounds are binding to cGAS in cells; THP-1 cells are used for this analysis. Compounds were tested in dose response mode by incubating with cells for 1.5 hours at 37° C., followed by pelleting and re-suspending in PBS, heating to 51.5° C. for 3 min and cooling to room temp. Cells were then lysed, debris, including denatured cGAS, was pelleted and the supernatant was analyzed for soluble cGAS by Western Blot using anti-cGAS primary Ab (Cell Signaling). Band intensity was analyzed using Image J software. Stimulation with cGAMP directly activates STING, circumventing cGAS; this was used to determine if compounds had effects on downstream components of cGAS/STING signaling. The IFN-6 ELISA was used as the primary measure of cellular potency and selectivity (Table 3) and used the reporter gene assays for assessing off-target activity with other pattern recognition receptors.
The ICso values for IFNB ELISA stimulated with THP-1, PBMC, DNA, and cGAMP were determined for several exemplary compounds of the invention, and are provided in Table 3 where A represents <1 μM; B represents 1-2.5 μM; C represents 2.5-10 μM; D represents 10-20 μM; and E represents >20 μM.

[3] = high ATP and GTP (1 mM) to mimic physiological conditions, read-out: IC50 FP Physiological
[4] = standard conditions: 100 μM ATP and GTP, 62.5 nM bp ISD, 60 minute reactions, read-out: IC50 FP Standard

SMILES | MDCK-MDR Permeability A→B [1] | IC50 (cGAS; [3]) | IC50 (cGAS; [4]) | IC50 [2]
Cc1nc(N2C[C@@H](CC(=O)Nc3ccc(N4CCNCC4)cc3)C[C@H]2C(=O)O)c2oc3ccccc3c2n1 [Compound 8, (2S,4R)-1-(2-methylbenzofuro[3,2-d]pyrimidin-4-yl)-4-(2-oxo-2-((4-(piperazin-1-yl)phenyl)amino)ethyl)pyrrolidine-2-carboxylic acid] | C (C represents <1 cm/ss×10^−6) | > 5000 nM | 1000 to 10000 nM | > 20000 nM
Cc1nc(N2C[C@@H](CC(=O)Nc3ccc(N4CCN(C)CC4)cc3)C[C@H]2C(=O)O)c2oc3ccccc3c2n1 [Compound 9, (2S,4R)-1-(2-methylbenzofuro[3,2-d]pyrimidin-4-yl)-4-(2-((4-(4-methylpiperazin-1-yl)phenyl)amino)-2-oxoethyl)pyrrolidine-2-carboxylic acid] | C (C represents <1 cm/ss×10^−6) | > 5000 nM | 1000 to 10000 nM | > 20000 nM
Cc1nc(N2C[C@@H](CC(=O)Nc3ccc(-c4cn[nH]c4)cc3)C[C@H]2C(=O)O)c2oc3ccccc3c2n1 [Compound 10, (2S,4R)-4-(2-((4-(1H-pyrazol-4-yl)phenyl)amino)-2-oxoethyl)-1-(2-methylbenzofuro[3,2-d]pyrimidin-4-yl)pyrrolidine-2-carboxylic acid] | C (C represents <1 cm/ss×10^−6) | 200 to 500 nM | < 50 nM | > 20000 nM
Cc1nc(N2C[C@@H](CC(=O)Nc3cccc(-c4cn[nH]c4)c3)C[C@H]2C(=O)O)c2oc3ccccc3c2n1 [Compound 11, (25,4R)-4-(2-((3-(1H-pyrazol-4-yl)phenyl)amino)-2-oxoethyl)-1-(2-methylbenzofuro[3,2-d]pyrimidin-4-yl)pyrrolidine-2-carboxylic acid] | C (C represents <1 cm/ss×10^−6) | 200 to 500 nM | 50 to 100 nM | > 20000 nM
COc1cccc(NC(=O)C[C@H]2C[C@@H](C(=O)O)N(c3nc(C)nc4c3oc3ccccc34)C2)c1 [Compound 13, (2S,4R)-4-(2-((3-methoxyphenyl)amino)-2-oxoethyl)-1-(2-methylbenzofuro[3,2-d]pyrimidin-4-yl)pyrrolidine-2-carboxylic acid] | C (C represents <1 cm/ss×10^−6) | 1000 to 5000 nM | 200 to 1000 nM | 10000 to 20000 nM
COc1ccccc1NC(=O)C[C@H]1C[C@@H](C(=O)O)N(c2nc(C)nc3c2oc2ccccc23)C1 [Compound 14, (28.4R)-4-(2-((2-methoxyphenyl)amino)-2-oxoethyl)-1-(2-methylbenzofuro[3,2-d]pyrimidin-4-yl)pyrrolidine-2-carboxylic acid] | C (C represents <1 cm/ss×10^−6) | > 5000 nM | 1000 to 10000 nM | > 20000 nM
Cc1nc(N2C[C@@H](CC(=O)Nc3ccccc3C)C[C@H]2C(=O)O)c2oc3ccccc3c2n1 [Compound 17, (2S,4R)-1-(2-methylbenzofuro[3,2-d]pyrimidin-4-yl)-4-(2-oxo-2-(o-tolylamino)ethyl)pyrrolidine-2-carboxylic acid] | C (C represents <1 cm/ss×10^−6) | > 5000 nM | 200 to 1000 nM | > 20000 nM
Cc1nc(N2C[C@@H](CC(=O)Nc3ccc(-c4ccc(O)nc4)cc3)C[C@H]2C(=O)O)c2oc3ccccc3c2n1 [Compound 47, (28.4R)-4-(2-((4-(6-hydroxypyridin-3-yl)phenyl)amino)-2-oxoethyl)-1-(2-methylbenzofuro[3,2-d]pyrimidin-4-yl)pyrrolidine-2-carboxylic acid] | – | 1000 to 5000 nM | 100 to 200 nM | –
Cc1nc(N2C[C@@H](CC(=O)Nc3ccc(-c4ccnc(O)c4)cc3)C[C@H]2C(=O)O)c2oc3ccccc3c2n1 [Compound 48, (2S,4R)-4-(2-((4-(2-hydroxypyridin-4-yl)phenyl)amino)-2-oxoethyl)-1-(2-methylbenzofuro[3,2-d]pyrimidin-4-yl)pyrrolidine-2-carboxylic acid] | – | 500 to 1000 nM | < 50 nM | –
Cc1nc(N2C[C@@H](CC(=O)Nc3cccc(-c4c[nH]cn4)c3)C[C@H]2C(=O)O)c2oc3ccccc3c2n1 [Compound 49, (28,4R)-4-(2-((3-(1H-imidazol-4-yl)phenyl)amino)-2-oxoethyl)-1-(2-methylbenzofuro[3,2-d]pyrimidin-4-yl)pyrrolidine-2-carboxylic acid] | – | 500 to 1000 nM | 100 to 200 nM | > 20000 nM
Cc1nc(N2C[C@@H](CC(=O)Nc3ccc(N4CCOC4=O)cc3)C[C@H]2C(=O)O)c2oc3ccccc3c2n1 [Compound 52, (2S,4R)-1-(2-methylbenzofuro[3,2-d]pyrimidin-4-yl)-4-(2-oxo-2-((4-(2-oxooxazolidin-3-yl)phenyl)amino)ethyl)pyrrolidine-2-carboxylic acid] | – | 1000 to 5000 nM | 100 to 200 nM | –
Cc1nc(N2C[C@@H](CC(=O)Nc3ccc(N4CCC(O)CC4)cc3)C[C@H]2C(=O)O)c2oc3ccccc3c2n1 [Compound 53, (2S,4R)-4-(2-((4-(4-hydroxypiperidin-1-yl)phenyl)amino)-2-oxoethyl)-1-(2-methylbenzofuro[3,2-d]pyrimidin-4-yl)pyrrolidine-2-carboxylic acid] | – | 1000 to 5000 nM | 200 to 1000 nM | > 20000 nM
Cc1nc(N2C[C@@H](CC(=O)Nc3ccc(-c4cccc(CO)c4)cc3)C[C@H]2C(=O)O)c2oc3ccccc3c2n1 [Compound 59, (2S,4R)-4-(2-((3′-(hydroxymethyl)-[1,1′-biphenyl]-4-yl)amino)-2-oxoethyl)-1-(2-methylbenzofuro[3,2-d]pyrimidin-4-yl)pyrrolidine-2-carboxylic acid] | – | 500 to 1000 nM | < 50 nM | –
Cc1nc(N2C[C@@H](CC(=O)Nc3ccc(-c4ccc(CO)cc4)cc3)C[C@H]2C(=O)O)c2oc3ccccc3c2n1 [Compound 60, (28.4R)-4-(2-((4′-(hydroxymethyl)-[1,1′-biphenyl]-4-yl)amino)-2-oxoethyl)-1-(2-methylbenzofuro[3,2-d]pyrimidin-4-yl)pyrrolidine-2-carboxylic acid] | – | 200 to 500 nM | < 50 nM | –
Cc1nc(N2C[C@@H](CC(=O)Nc3ccc(-c4ccccc4)nn3)C[C@H]2C(=O)O)c2oc3ccccc3c2n1 [Compound 64, (2S,4R)-1-(2-methylbenzofuro[3,2-d]pyrimidin-4-yl)-4-(2-oxo-2-((6-phenylpyridazin-3-yl)amino)ethyl)pyrrolidine-2-carboxylic acid] | – | 1000 to 5000 nM | 200 to 1000 nM | –
Cc1nc(N2C[C@@H](CC(=O)Nc3cnc(-c4ccccc4)nc3)C[C@H]2C(=O)O)c2oc3ccccc3c2n1 [Compound 65, (2S,4R)-1-(2-methylbenzofuro[3,2-d]pyrimidin-4-yl)-4-(2-oxo-2-((2-phenylpyrimidin-5-yl)amino)ethyl)pyrrolidine-2-carboxylic acid] | – | 500 to 1000 nM | 50 to 100 nM | –

From patent US20240174684A1, “INHIBITORS OF cGAS ACTIVITY AS THERAPEUTIC AGENTS” (BELLBROOK LABS, LLC, priority 2021, published 2024)
